Columns and labels:
[1] = system: Sodium channel; assay: Inhibitory effect of veratrizine-induced sodium channel activity (synaptozome membrane potential, Rhodamine 6G); type: biochemical, Wistar rats; conditions: compound 0.1 μM; rat brain synaptozomes, veratrizine-induced depolarization
Excerpt: Inhibitory Effect of Veratrizine-induced Sodium Channel Activity

[2] = biological target: T1, Dopamine D2 receptor (Rattus norvegicus, UniProt P61169); assay: Dopamine D2 receptor blocking action ([^3H] raclopride, striatum membrane fraction); type: binding, Wistar male rats; conditions: 1.0 nM [^3H] raclopride, 25° C., 1 hour
T1 construct: membrane fraction prepared from the striatum of Wistar male rats; from tissue; host or cells: rat striatum membrane fraction
Protocol: Dopamine D2 Receptor Blocking Action
57 μl of the membrane fraction prepared from the striatum of Wistar male rats (6 weeks old) was incubated together with the compound and 1.0 nM [^3H] raclopride in a buffer at 25° C. for 1 hour. A GF/C glass filter (0.1% polyethylene imine treatment) was used for B/F separation. A beta plate was used for measurement of the radioactivity to evaluate the effect of the compound.

[3] = Acute toxicity test; conditions: male, mouse, in vivo, iv, ddY mice, death rate up to 24 hours after administration
Protocol: A pharmaceutical preparation was administered intravenously to ddY mice (male, 6 weeks old). The 50% lethal dosage LD50 of the acute toxicity was calculated by an ordinary method from the death rate up to 24 hours after administration.

[4] = system: T-type Ca^2+ channel; assay: T-type calcium channel inhibitory effect (whole-cell patch clamp, hippocampal CA1 pyramidal cells); type: cell-based, Wistar rats; conditions: rat hippocampal CA1 pyramidal cells; peak current after 1 minute of application
Protocol: T-Type Calcium Channel Inhibitory Effect
The hippocampal CA1 pyramidal cells were isolated from Wistar rats (female, 1 week old) in according to the method reported by Takahashi et al. [K. Takahashi et al.; J. Pharmacol. Exp. Ther., 256, 169 (1991)] and the T-type calcium current was measured under conditions of a fixed membrane potential using the whole-cell configuration of the patch clamp technique. The effects of the compounds were evaluated from the rate of suppression of the peak current after 1 minute of application using the concentration clamp method.

[5] = system: lipid peroxidation; assay: Lipid peroxidation suppressing effect (brain membrane preparation, malonaldehyde and 4-hydroxyalkenals); type: biochemical, Wistar rats; conditions: rat brain membrane preparation, 37° C., 30 minutes
Protocol: Lipid Peroxidation Suppressing Effect
The whole brains of Wistar rats (10 weeks old, male) were excised and homogenized in the 10 times volumes of 50 mM phosphate-buffered solution (pH=7.4) (hereinafter referred to as PBS). The centrifuged supernatent was further diluted fourfold and the result was used as the brain membrane preparation. The membrane preparation was incubated in the presence of vehicle (0.5% DMSO) or compound at 37° C. for 30 minutes and an automatic oxidation reaction promoted. The reaction was stopped by 35% perchloric acid, then the total of the main decomposition products of the peroxidized lipids present in the centrifuged supernatent, that is, malonaldehyde and 4-hydroxyalkenals, was measured using a BIOXYTECH®/LPO-586™ peroxidized lipid colorimetric assay kit (OXIS International, Inc.) and used as an indicator of the lipid peroxidation.

[6] = system: DBA/2N type mice; assay: Audiogenic seizure suppressing effect; type: in vivo; conditions: Mus musculus, ip, 20 min, compound 10 mg/kg, i.p.; audio stimulus after 20 minutes; seizure score; read-out: Antiseizure effect (suppression rate %)
Protocol: Audiogenic Seizure Suppressing Effect
The audiogenic seizure suppressing effect of the compounds was evaluated by the method of Sarro et al. [G. B. De Sarro et al., Br. J. Pharmacol., 93, 247 (1988)]. That is, the compound dissolved in 10% 2-hydroxypropyl-β-cyclodextrin was administered intraperitoneally to DBA/2N type mice (male, 3 weeks old). After 20 minutes, a supersonic washer was used to apply audio stimulus of at least 90 dB for 1 minute. The wild running (WR), clonic seizures (clonus), tonic seizures (tonus), and the respiratory arrest (RA) were observed. The seizure suppressing effect was evaluated from the rate of suppression of the average value of the seizure score found as 0=no response, 1=WR, 2=clonus, 3=tonus, and 4=RA.

T1 sequence (P61169 whole entry): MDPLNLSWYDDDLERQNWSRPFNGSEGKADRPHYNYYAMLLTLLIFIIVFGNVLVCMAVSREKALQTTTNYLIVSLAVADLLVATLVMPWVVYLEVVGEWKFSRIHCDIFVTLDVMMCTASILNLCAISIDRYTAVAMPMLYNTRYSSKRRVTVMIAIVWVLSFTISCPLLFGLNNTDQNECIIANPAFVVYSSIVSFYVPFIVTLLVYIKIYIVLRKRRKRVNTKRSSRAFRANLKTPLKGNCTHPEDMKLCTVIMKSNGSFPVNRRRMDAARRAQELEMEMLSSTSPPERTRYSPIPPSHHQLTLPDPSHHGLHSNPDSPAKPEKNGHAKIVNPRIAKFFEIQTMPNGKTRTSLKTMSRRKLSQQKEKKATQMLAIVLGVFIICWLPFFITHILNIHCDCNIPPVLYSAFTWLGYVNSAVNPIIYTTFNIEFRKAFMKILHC

Compound: COc1ccc(N)cc1OC[C@@H](O)CN1CCC(c2ccc(Oc3ccccc3)cc2)CC1 [Compound 41, (2S)-1-[(5-amino-2-methoxy)phenoxy]-3-[4-(4-phenoxyphenyl)piperidin-1-yl]-2-propanol]
- Anti-veratrizine effect (inhibiting rate %) [1]: 22.1%
- IC50 [2]: 11 µM
- LD50 at 24 h [3]: 36.7 mg/kg
- IC50 [4]: 4 µM
- IC50 [5]: 0.87 µM
- inhibition in vivo at 10 mg/kg [6]: 60%

Source: patent publication US6407099B1, “Arylpiperidinopropanol and arylpiperazinopropanol derivatives and pharmaceuticals containing the same” (Suntory Limited, priority 1997, dated 2002)
